The values that follow come from patent US7772263B2, “Compounds for the treatment of inflammatory disorders” (Schering Corporation, priority 2006, dated 2010).

Where only a bound is given, the exact number is not on record here.

The Ki is the equilibrium dissociation constant of an inhibitor or competing ligand from its target.

The target in one test is T1, purified catalytic domain of recombinant human TACE (rhTACEc) (Homo sapiens, UniProt P78536, N452Q/S266A).
T1 construct: rhTACEc, Residue 215 to 477 with two mutation (S266A and N4520) and a 6×His tail; 6xHis (C); made in house; host or cells: baculovirus/Hi5 insect cells
T1 sequence (P78536 215-477 S266A/N452Q limits assumed): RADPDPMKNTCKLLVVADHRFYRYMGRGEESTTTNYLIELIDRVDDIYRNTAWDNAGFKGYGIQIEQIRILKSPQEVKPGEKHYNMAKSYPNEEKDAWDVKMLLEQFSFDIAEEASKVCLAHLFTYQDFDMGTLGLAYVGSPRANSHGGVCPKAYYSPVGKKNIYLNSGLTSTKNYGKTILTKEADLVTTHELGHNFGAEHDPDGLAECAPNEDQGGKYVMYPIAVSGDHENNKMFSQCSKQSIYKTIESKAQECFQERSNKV
Briefly: TACE kinetic assay, cleavage of internally quenched fluorescent peptide substrate SPDL-3. The format is biochemical. Conditions: TACE; class letters A-D; read-out: Ki Rating.
For the molecule `COc1ccc2c(c1)C(=O)N(C[C@@]1(C#Cc3ccc4occc4c3)NC(=O)NC1=O)C2` [Compound 1203], the Ki was less than 5 nM.
With `COc1ccc2c(c1)C(=O)N(C[C@@]1(C#Cc3cn(C)c(=O)n(C)c3=O)NC(=O)NC1=O)C2` [Compound 1204], the Ki was less than 5 nM.
Same read-out and setting: under `COc1ccc2c(c1)C(=O)N(C[C@@]1(C#Cc3c[nH]c(=O)[nH]c3=O)NC(=O)NC1=O)C2` [Compound 1205] stands less than 5 nM.
On to `COc1ccc2c(c1)C(=O)N(C[C@@]1(C#Cc3nc4ncnc(N)c4n3C)NC(=O)NC1=O)C2` [Compound 1208], for which the Ki was less than 5 nM.
On to `O=C1NC(=O)[C@@](C#Cc2ccc3cnoc3c2)(CN2Cc3ccc(F)cc3C2=O)N1` [Compound 1211], for which the Ki was less than 5 nM.
Take `COc1ccc2c(c1)C(=O)N(C[C@@]1(C#Cc3ccc4nn(C(C)C)cc4c3)NC(=O)NC1=O)C2` [Compound 1212]: the Ki is less than 5 nM.
In the case of `COc1ccc2c(c1)C(=O)N(C[C@@]1(C#Cc3ccc4c(cnn4C(C)C)c3)NC(=O)NC1=O)C2` [Compound 1213], the Ki was less than 5 nM.
Take `COc1ccc2c(c1)C(=O)N(C[C@@]1(C#Cc3ccc4cnoc4c3)NC(=O)NC1=O)C2` [Compound 1214]: the Ki is less than 5 nM.
In the case of `COc1ccc2c(c1)C(=O)N(C[C@@]1(C#Cc3cncc(-c4nnn(C)n4)c3)NC(=O)NC1=O)C2` [Compound 1215], the inhibition constant Ki is less than 5 nM.
Take `COc1ccc2c(c1)C(=O)N(C[C@@]1(C#Cc3ccc(N)c(OC(F)(F)F)c3)NC(=O)NC1=O)C2` [Compound 1216]: the Ki is less than 5 nM.
Regarding `COc1ccc2c(c1)C(=O)N(C[C@@]1(C#Cc3cc(F)c(F)cc3OC)NC(=O)NC1=O)C2` [Compound 1217], the Ki was less than 5 nM.
In the case of `COc1ccc2c(c1)C(=O)N(C[C@@]1(C#Cc3ccc(F)cc3C#N)NC(=O)NC1=O)C2` [Compound 1218], the Ki was less than 5 nM.
Take `COc1ccc2c(c1)C(=O)N(C[C@@]1(C#Cc3cc(C)ccc3C#N)NC(=O)NC1=O)C2` [Compound 1219]: the Ki is less than 5 nM.
Same read-out and setting: next, `COc1ccc2c(c1)C(=O)N(C[C@@]1(C#Cc3ccc(-c4nnn(C)n4)s3)NC(=O)NC1=O)C2` [Compound 1220A]: less than 5 nM.
Turning to `COc1ccc2c(c1)C(=O)N(C[C@@]1(C#Cc3ccc(C(C)=O)cc3)NC(=O)NC1=O)C2` [Compound 1220B], the inhibitory constant (Ki) was less than 5 nM.
Still for that read-out and setting: under `COc1ccc2c(c1)C(=O)N(C[C@@]1(C#Cc3ccc(S(C)(=O)=O)cc3)NC(=O)NC1=O)C2` [Compound 1220C] stands more than 100 nM; under `COc1ccc2c(c1)C(=O)N(C[C@@]1(C#Cc3ccc4c(c3)NC(=O)C4=O)NC(=O)NC1=O)C2` [Compound 1220D], less than 5 nM; under `COc1ccc2c(c1)C(=O)N(C[C@@]1(C#Cc3ncnc4[nH]ccc34)NC(=O)NC1=O)C2` [Compound 1220E], less than 5 nM.
The same measure, in the same setting: under `COc1ccc2c(c1)C(=O)N(C[C@@]1(C#Cc3cncc(-c4nnn(C(C)C)n4)c3)NC(=O)NC1=O)C2` [Compound 1220] stands less than 5 nM; under `COc1ccc2c(c1)C(=O)N(C[C@@]1(C#Cc3cccnc3C3CC3)NC(=O)NC1=O)C2` [Compound 1221], less than 5 nM; under `COc1ccc2c(c1)C(=O)N(C[C@@]1(C#Cc3cnccc3C3CC3)NC(=O)NC1=O)C2` [Compound 1222], less than 5 nM.
Still for that read-out and setting: under `COc1ccc2c(c1)C(=O)N(C[C@@]1(C#Cc3ccc(C(N)=O)c([N+](=O)[O-])c3)NC(=O)NC1=O)C2` [Compound 1250] stands less than 5 nM; under `COc1ccc2c(c1)C(=O)N(C[C@@]1(C#Cc3ccc4c(c3)C(=O)NC4)NC(=O)NC1=O)C2` [Compound 1251], less than 5 nM.
In the case of `COc1ccc2c(c1)C(=O)N(C[C@@]1(C#Cc3cccc4c3CNC4=O)NC(=O)NC1=O)C2` [Compound 1252], the Ki was less than 5 nM.
For the molecule `COc1ccc2c(c1)C(=O)N(C[C@@]1(C#Cc3ccc4c(c3)CNC4=O)NC(=O)NC1=O)C2` [Compound 1253], the Ki was less than 5 nM.
For the molecule `COc1ccc2c(c1)C(=O)N(C[C@@]1(C#Cc3ccc(-c4cncnc4)nc3)NC(=O)NC1=O)C2` [Compound 1254], the Ki was less than 5 nM.
On to `COc1ccc2c(c1)C(=O)N(C[C@@]1(C#Cc3cnc(-c4cccnc4)nc3)NC(=O)NC1=O)C2` [Compound 1256C], for which the Ki is less than 5 nM.
`COc1ccc2c(c1)C(=O)N(C[C@@]1(C#Cc3ccc(-c4nnc(C)o4)nc3)NC(=O)NC1=O)C2` [Compound 1500]: the inhibition constant Ki was less than 5 nM.
For the molecule `COc1ccc2c(c1)C(=O)N(C[C@@]1(C#Cc3ccc(-c4nnc(N)o4)nc3)NC(=O)NC1=O)C2` [Compound 1501], the Ki is less than 5 nM.
`CCNc1nnc(-c2ccc(C#C[C@]3(CN4Cc5ccc(OC)cc5C4=O)NC(=O)NC3=O)cn2)o1` [Compound 1502]: the Ki is less than 5 nM.
Turning to `COc1ccc2c(c1)C(=O)N(C[C@@]1(C#Cc3cnc4ccccn34)NC(=O)NC1=O)C2` [Compound 1503], the Ki is less than 5 nM.
As to `COc1ccc2c(c1)C(=O)N(C[C@@]1(C#Cc3cnc4ccc(Br)cn34)NC(=O)NC1=O)C2` [Compound 1504], the Ki is less than 5 nM.
For `COc1ccc2c(c1)C(=O)N(C[C@@]1(C#Cc3ccc4nc(C)cn4c3)NC(=O)NC1=O)C2` [Compound 1505], the Ki is less than 5 nM.
As for `COc1ccc2c(c1)C(=O)N(C[C@@]1(C#Cc3n[nH]c4ccccc34)NC(=O)NC1=O)C2` [Compound 1506], the Ki is less than 5 nM.
Same read-out and setting: under `COc1ccc2c(c1)C(=O)N(C[C@@]1(C#Cc3cc(F)ccn3)NC(=O)NC1=O)C2` [Compound 1507] stands less than 5 nM; under `COc1ccc2c(c1)C(=O)N(C[C@@]1(C#Cc3c4ccccc4nn3C)NC(=O)NC1=O)C2` [Compound 1508], less than 5 nM.
Turning to `COc1ccc2c(c1)C(=O)N(C[C@@]1(C#Cc3cc(C)ccc3O)NC(=O)NC1=O)C2` [Compound 1509], the Ki was less than 5 nM.
`COc1ccc2c(c1)C(=O)N(C[C@@]1(C#Cc3cnn4ccccc34)NC(=O)NC1=O)C2` [Compound 1510]: the inhibitory constant (Ki) was less than 5 nM.
On to `COC(=O)c1cc(C#C[C@]2(CN3Cc4ccc(OC)cc4C3=O)NC(=O)NC2=O)ccn1` [Compound 1511], for which the Ki was less than 5 nM.
On to `COc1ccc2c(c1)C(=O)N(C[C@@]1(C#Cc3ccnc(C(N)=O)c3)NC(=O)NC1=O)C2` [Compound 1512], for which the Ki was less than 5 nM.
As to `COc1ccc2c(c1)C(=O)N(C[C@@]1(C#Cc3ccc(C(N)=O)nc3)NC(=O)NC1=O)C2` [Compound 1513], the Ki was less than 5 nM.
Turning to `COC(=O)c1ccc(C#C[C@]2(CN3Cc4ccc(OC)cc4C3=O)NC(=O)NC2=O)cn1` [Compound 1514], the Ki is less than 5 nM.
On the same count and under the same terms, next, `COc1ccc2c(c1)C(=O)N(C[C@@]1(C#Cc3cnccc3C(N)=O)NC(=O)NC1=O)C2` [Compound 1515]: less than 5 nM; `COC(=O)c1ccncc1C#C[C@]1(CN2Cc3ccc(OC)cc3C2=O)NC(=O)NC1=O` [Compound 1516]: less than 5 nM; `CNC(=O)c1ccc(C#C[C@]2(CN3Cc4ccc(OC)cc4C3=O)NC(=O)NC2=O)cn1` [Compound 1517]: less than 5 nM.
Take `COc1ccc2c(c1)C(=O)N(C[C@@]1(C#Cc3ccc(C(=O)NC4CC4)nc3)NC(=O)NC1=O)C2` [Compound 1518]: the Ki is less than 5 nM.
Same read-out and setting: under `COc1ccc2c(c1)C(=O)N(C[C@@]1(C#Cc3cc(C)c(=O)n(C)c3)NC(=O)NC1=O)C2` [Compound 1519] stands less than 5 nM.
For `COc1ccc2c(c1)C(=O)N(C[C@@]1(C#Cc3ccc4nnn(C)c4c3)NC(=O)NC1=O)C2` [Compound 1520], the Ki is less than 5 nM.
Same read-out and setting: next, `COc1ccc2c(c1)C(=O)N(C[C@@]1(C#Cc3ccc4nc(C(F)(F)F)cn4c3)NC(=O)NC1=O)C2` [Compound 1521]: less than 5 nM; `COc1ccc2c(c1)C(=O)N(C[C@@]1(C#Cc3ccc4[nH]nnc4c3)NC(=O)NC1=O)C2` [Compound 1522]: less than 5 nM; `COc1ccc2c(c1)C(=O)N(C[C@@]1(C#Cc3ccc4[nH]ncc4c3)NC(=O)NC1=O)C2` [Compound 1523]: less than 5 nM.
Still for that read-out and setting: under `COc1ccc2c(c1)C(=O)N(C[C@@]1(C#Cc3c[nH]c(=O)c(C)c3)NC(=O)NC1=O)C2` [Compound 1524] stands less than 5 nM; under `CC#CCOc1ccc2c(c1)C(=O)N(C[C@@]1(C#Cc3ccc4cn(C)nc4c3)NC(=O)NC1=O)C2` [Compound 1533], less than 5 nM; under `Cc1cc(COc2ccc3c(c2)C(=O)N(C[C@@]2(C#Cc4cccnc4)NC(=O)NC2=O)C3)c2ccccc2n1` [Compound 1534], less than 5 nM.
`O=C1NC(=O)C(C#Cc2cnc3ccc(Br)cn23)(CN2Cc3ccc(OC(F)F)cc3C2=O)N1` (stereo not shown) [Compound 1535]: the Ki is 5 to 25 nM.
Same read-out and setting: next, `COc1ccc2c(c1)C(=O)N(C[C@@]1(C#Cc3ccc(C(=O)NS(C)(=O)=O)cc3)NC(=O)NC1=O)C2` [Compound 1550]: 5 to 25 nM; `CCS(=O)(=O)NC(=O)c1ccc(C#C[C@]2(CN3Cc4ccc(OC)cc4C3=O)NC(=O)NC2=O)cc1` [Compound 1551]: less than 5 nM; `COc1ccc2c(c1)C(=O)N(C[C@@]1(C#Cc3cncc(C(C)=NO)c3)NC(=O)NC1=O)C2` [Compound 1552]: less than 5 nM.
On to `COc1ccc2c(c1)C(=O)N(C[C@@]1(C#Cc3ccc(CC(C)=NO)cc3)NC(=O)NC1=O)C2` [Compound 1553], for which the inhibitory constant (Ki) was less than 5 nM.
For the molecule `COc1ccc2c(c1)C(=O)N(C[C@@]1(C#Cc3ccc4c(C=NO)c[nH]c4c3)NC(=O)NC1=O)C2` [Compound 1554], the Ki is less than 5 nM.
In the case of `COc1ccc2c(c1)C(=O)N(C[C@@]1(C#Cc3ccc(C4(C)NC(=O)N(C)C4=O)cc3)NC(=O)NC1=O)C2` (stereo partly shown) [Compound 1555], the Ki was less than 5 nM.
As to `COc1ccc2c(c1)C(=O)N(C[C@@]1(C#Cc3cccc(C4(C)NC(=O)NC4=O)c3)NC(=O)NC1=O)C2` (stereo partly shown) [Compound 1556], the Ki was less than 5 nM.

Still in this test, the particulars now being: rhTACEc 70 pM, 30 μM SPDL-3, 90 min pre-incubation at 25° C.; read-out: Ki (nM), TACE inhibitory activity.
Consider `COc1ccc2c(c1)C(=O)N(C[C@@]1(C#Cc3ccc(C4(C)NC(=O)NC4=O)cc3)NC(=O)NC1=O)C2` (stereo partly shown) [Compound 1256], for which the inhibition constant Ki came to 0.03 nM.
Turning to `CCNc1nnc(-c2ccc(C#C[C@]3(CN4Cc5ccc(OC)cc5C4=O)NC(=O)NC3=O)cn2)o1` [Compound 1502], the Ki turned out to be 0.094 nM.
